Tested on: 777334-354-R2-J4-PDC tumor spheroids with HUVEC/MSC, viability
Experiment: Anticancer human tumor 777334-354-R2-J4-PDC patient-derived pancreatic adenocarcinoma cell line growth inhibition [GQUAD]
Conditions: for IC50: curve of first compound; for viability, T/C: stronger effect = lower value
Procedure, shortened: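 Viability of tumor cells grown as complex spheroids with endothelial and stromal cells, exposed to drug combinations. Top concentration at or near clinical Cmax (else 10 microM), diluted in half-log increments.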

[1] = second compound 0.0316 µM, first compound 0.0316 µM
[2] = second compound 0.0316 µM, first compound 0.1 µM
[3] = second compound 0.0316 µM, first compound 0.316 µM
[4] = second compound 0.0316 µM, first compound 1 µM
[5] = second compound 0.0316 µM, first compound 3.16 µM
[6] = second compound 0.0316 µM, first compound 10 µM
[7] = second compound 0.1 µM, first compound 0.0316 µM
[8] = second compound 0.1 µM, first compound 0.1 µM
[9] = second compound 0.1 µM, first compound 0.316 µM
[10] = second compound 0.1 µM, first compound 1 µM
[11] = second compound 0.1 µM, first compound 3.16 µM
[12] = second compound 0.1 µM, first compound 10 µM
[13] = second compound 0.316 µM, first compound 0.0316 µM
[14] = second compound 0.316 µM, first compound 0.1 µM
[15] = second compound 0.316 µM, first compound 0.316 µM
[16] = second compound 0.316 µM, first compound 1 µM
[17] = second compound 0.316 µM, first compound 3.16 µM
[18] = second compound 0.316 µM, first compound 10 µM
[19] = second compound 1 µM, first compound 0.0316 µM
[20] = second compound 1 µM, first compound 0.1 µM
[21] = second compound 1 µM, first compound 0.316 µM
[22] = second compound 1 µM, first compound 1 µM
[23] = second compound 1 µM, first compound 3.16 µM
[24] = second compound 1 µM, first compound 10 µM
[25] = second compound 3.16 µM, first compound 0.0316 µM
[26] = second compound 3.16 µM, first compound 0.1 µM
[27] = second compound 3.16 µM, first compound 0.316 µM
[28] = second compound 3.16 µM, first compound 1 µM
[29] = second compound 3.16 µM, first compound 3.16 µM
[30] = second compound 3.16 µM, first compound 10 µM
[31] = second compound 10 µM, first compound 0.0316 µM
[32] = second compound 10 µM, first compound 0.1 µM
[33] = second compound 10 µM, first compound 0.316 µM
[34] = second compound 10 µM, first compound 1 µM
[35] = second compound 10 µM, first compound 3.16 µM
[36] = second compound 10 µM, first compound 10 µM
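Also: spheroids exposed to compounds for 7 days before readout.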

## COc1cccc2c1C(=O)c1c(O)c3c(c(O)c1C2=O)CC(O)(C(=O)CO)CC3OC1CC(N)C(O)C(C)O1 (stereo unspecified) + CN(C)c1ccc(Nc2c3ccc(NC(=O)CCN4CCCC4)cc3nc3cc(NC(=O)CCN4CCCC4)ccc23)cc1
Second compound 0.0316 µM
  IC50: 909 nM
Second compound 0.1 µM
  IC50: 841 nM
Second compound 0.316 µM
  IC50: 783 nM
Second compound 1 µM
  IC50: 679 nM
Second compound 3.16 µM
  IC50: 633 nM
Second compound 10 µM
  IC50: 858 nM
[1]
  viability, T/C: 109%
[2]
  viability, T/C: 84.4%
[3]
  viability, T/C: 74.2%
[4]
  viability, T/C: 49.3%
[5]
  viability, T/C: 25.2%
[6]
  viability, T/C: 9.52%
[7]
  viability, T/C: 100%
[8]
  viability, T/C: 85.3%
[9]
  viability, T/C: 71.2%
[10]
  viability, T/C: 47.1%
[11]
  viability, T/C: 24.5%
[12]
  viability, T/C: 13.8%
[13]
  viability, T/C: 107%
[14]
  viability, T/C: 78.9%
[15]
  viability, T/C: 70.1%
[16]
  viability, T/C: 47.9%
[17]
  viability, T/C: 23.6%
[18]
  viability, T/C: 14%
[19]
  viability, T/C: 89.7%
[20]
  viability, T/C: 74.7%
[21]
  viability, T/C: 66.5%
[22]
  viability, T/C: 42.9%
[23]
  viability, T/C: 23.2%
[24]
  viability, T/C: 12.2%
[25]
  viability, T/C: 83.7%
[26]
  viability, T/C: 76.5%
[27]
  viability, T/C: 55%
[28]
  viability, T/C: 48.4%
[29]
  viability, T/C: 25%
[30]
  viability, T/C: 15.2%
[31]
  viability, T/C: 77%
[32]
  viability, T/C: 78.2%
[33]
  viability, T/C: 64%
[34]
  viability, T/C: 50%
[35]
  viability, T/C: 22.3%
[36]
  viability, T/C: 14%

## O=c1[nH]cc(F)c(=O)[nH]1 + Cc1cnc(CNC(=O)c2c(=O)c3ccc(N4CCCN(C)CC4)nc3n3c2sc2ccccc23)cn1
Second compound 0.0316 µM
  IC50: > 10000 nM
Second compound 0.1 µM
  IC50: > 10000 nM
Second compound 0.316 µM
  IC50: > 10000 nM
Second compound 1 µM
  IC50: > 10000 nM
Second compound 3.16 µM
  IC50: > 10000 nM
Second compound 10 µM
  IC50: > 10000 nM
[1]
  viability, T/C: 97.7%
[2]
  viability, T/C: 94.8%
[3]
  viability, T/C: 91.9%
[4]
  viability, T/C: 87.9%
[5]
  viability, T/C: 69.5%
[6]
  viability, T/C: 64.5%
[7]
  viability, T/C: 82.4%
[8]
  viability, T/C: 84.8%
[9]
  viability, T/C: 89%
[10]
  viability, T/C: 80.1%
[11]
  viability, T/C: 82%
[12]
  viability, T/C: 68.3%
[13]
  viability, T/C: 85.3%
[14]
  viability, T/C: 82.8%
[15]
  viability, T/C: 73.8%
[16]
  viability, T/C: 75.8%
[17]
  viability, T/C: 74.7%
[18]
  viability, T/C: 66.5%
[19]
  viability, T/C: 71.3%
[20]
  viability, T/C: 66.8%
[21]
  viability, T/C: 68%
[22]
  viability, T/C: 67.7%
[23]
  viability, T/C: 73.2%
[24]
  viability, T/C: 65.7%
[25]
  viability, T/C: 59.4%
[26]
  viability, T/C: 73.2%
[27]
  viability, T/C: 67.3%
[28]
  viability, T/C: 61.6%
[29]
  viability, T/C: 68.8%
[30]
  viability, T/C: 56%
[31]
  viability, T/C: 57.7%
[32]
  viability, T/C: 61.9%
[33]
  viability, T/C: 59%
[34]
  viability, T/C: 59.7%
[35]
  viability, T/C: 50.8%
[36]
  viability, T/C: 51.8%

## Cn1ncnc1[C@H]1c2n[nH]c(=O)c3cc(F)cc(c23)N[C@@H]1c1ccc(F)cc1 + Cc1cnc(CNC(=O)c2c(=O)c3ccc(N4CCCN(C)CC4)nc3n3c2sc2ccccc23)cn1
Second compound 0.0316 µM
  IC50: > 316 nM
Second compound 0.1 µM
  IC50: > 316 nM
Second compound 0.316 µM
  IC50: > 316 nM
Second compound 1 µM
  IC50: > 316 nM
Second compound 3.16 µM
  IC50: > 316 nM
Second compound 10 µM
  IC50: > 316 nM
Second compound 0.0316 µM, first compound 0.000999 µM
  viability, T/C: 97.7%
Second compound 0.0316 µM, first compound 0.00316 µM
  viability, T/C: 86.3%
Second compound 0.0316 µM, first compound 0.00999 µM
  viability, T/C: 96.8%
[1]
  viability, T/C: 95%
Second compound 0.0316 µM, first compound 0.0999 µM
  viability, T/C: 104%
[3]
  viability, T/C: 88%
Second compound 0.1 µM, first compound 0.000999 µM
  viability, T/C: 86.4%
Second compound 0.1 µM, first compound 0.00316 µM
  viability, T/C: 72.6%
Second compound 0.1 µM, first compound 0.00999 µM
  viability, T/C: 90.8%
[7]
  viability, T/C: 86.2%
Second compound 0.1 µM, first compound 0.0999 µM
  viability, T/C: 94.5%
[9]
  viability, T/C: 78.2%
Second compound 0.316 µM, first compound 0.000999 µM
  viability, T/C: 83.7%
Second compound 0.316 µM, first compound 0.00316 µM
  viability, T/C: 81.1%
Second compound 0.316 µM, first compound 0.00999 µM
  viability, T/C: 71.9%
[13]
  viability, T/C: 79.6%
Second compound 0.316 µM, first compound 0.0999 µM
  viability, T/C: 87.5%
[15]
  viability, T/C: 68%
Second compound 1 µM, first compound 0.000999 µM
  viability, T/C: 77.7%
Second compound 1 µM, first compound 0.00316 µM
  viability, T/C: 74.1%
Second compound 1 µM, first compound 0.00999 µM
  viability, T/C: 64.4%
[19]
  viability, T/C: 71.3%
Second compound 1 µM, first compound 0.0999 µM
  viability, T/C: 76.5%
[21]
  viability, T/C: 62.5%
Second compound 3.16 µM, first compound 0.000999 µM
  viability, T/C: 60.7%
Second compound 3.16 µM, first compound 0.00316 µM
  viability, T/C: 63.8%
Second compound 3.16 µM, first compound 0.00999 µM
  viability, T/C: 57.3%
[25]
  viability, T/C: 60.6%
Second compound 3.16 µM, first compound 0.0999 µM
  viability, T/C: 61%
[27]
  viability, T/C: 54%
Second compound 10 µM, first compound 0.000999 µM
  viability, T/C: 52.1%
Second compound 10 µM, first compound 0.00316 µM
  viability, T/C: 58.4%
Second compound 10 µM, first compound 0.00999 µM
  viability, T/C: 58.2%
[31]
  viability, T/C: 68.7%
Second compound 10 µM, first compound 0.0999 µM
  viability, T/C: 56.1%
[33]
  viability, T/C: 51.8%

— PubChem BioAssay AID2060499 (Molecular Pharmacology Branch, DTP, NCI, 2025)
